# Experimental data as given in paper PMC5733478, “A Non-imaging High Throughput Approach to Chemical Library Screening at the Unmodified Adenosine-A3 Receptor in Living Cells” (Frontiers in Pharmacology, 2017).
# Structures can show the parent of a compound that is named as a salt.
# Target: T1, human A3AR (Homo sapiens, UniProt P0DMS8)
# T1 construct: expressed in transfected cells
# T1 sequence (P0DMS8 1-318): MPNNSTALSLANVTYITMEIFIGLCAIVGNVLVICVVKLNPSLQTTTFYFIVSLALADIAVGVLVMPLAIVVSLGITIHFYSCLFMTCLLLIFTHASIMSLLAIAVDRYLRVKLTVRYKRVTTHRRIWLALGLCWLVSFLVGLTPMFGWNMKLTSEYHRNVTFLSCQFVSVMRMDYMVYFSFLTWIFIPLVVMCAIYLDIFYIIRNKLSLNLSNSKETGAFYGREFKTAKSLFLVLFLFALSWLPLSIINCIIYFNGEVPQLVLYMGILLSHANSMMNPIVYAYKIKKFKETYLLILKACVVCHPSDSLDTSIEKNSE
# Experiment: LOPAC library primary screen: single concentration (10 μM) inhibition of 25 nM CA200645 binding, PHERAstar FS
# Conditions: not given
row,Molecule,% 25 nM CA200645 binding [%]
1,Cc1ccc(Cl)c(Nc2ccccc2C(=O)O)c1Cl [Meclofenamic acid sodium],93.6 ± 9.6
2,O=C(O)Cc1ccccc1Nc1c(Cl)cccc1Cl [Diclofenac sodium],100.0 ± 12.4
3,COc1ccc(C(=O)N2CCCC2=O)cc1 [Aniracetam],95.9 ± 3.1
4,Cl.Fc1ccc(CN(C2=NCCN2)c2c(Cl)cccc2Cl)cc1 [IMID-4F hydrochloride],97.3 ± 5.7
5,CCCN1CCC[C@H](c2cccc(O)c2)C1.Cl [R(+)-3PPP hydrochloride],88.4 ± 12.1
6,"CCCn1c(=O)c2[nH]c(C3CCCC3)nc2n(CCCOC(=O)c2ccc(S(=O)(=O)F)cc2)c1=O [FSCPX, reference compound]",57.1 ± 9.1
7,CCOC(=O)C1=C(C)NC(C)=C(C(=O)OC)C1c1cccc([N+](=O)[O-])c1 (stereo not drawn) [Nitrendipine],96.1 ± 17.4
8,CCCN1CCc2cccc3c2[C@H]1Cc1ccc(O)c(O)c1-3.Cl [R(-)-Propylnorapomorphine hydrochloride],96.1 ± 7.1
9,O=C(Nc1ccc([N+](=O)[O-])cc1Cl)c1cc(Cl)ccc1O [Niclosamide],101.6 ± 22.5
10,O=C(O)CCCCC1CCSS1 (racemic) [(±)-alpha-Lipoic Acid],99.7 ± 5.6
11,NC(=O)CN1CCCC1=O [Piracetam],110.0 ± 4.3
12,CCc1cncnc1N1CCN(Cc2nc3ccc(C(F)(F)F)cc3[nH]2)CC1 [PF-4708671],99.2 ± 13.5
13,Nn1nnc2ccccc21 [1-Aminobenzotriazole],83.5 ± 18.8
14,CCCCc1ccc(C(=O)O)nc1 [Fusaric acid],66.5 ± 29.0
15,CC[C@]1(O)C[C@H]2CN(CCc3c([nH]c4ccccc34)[C@@](C(=O)OC)(c3cc4c(cc3OC)N(C=O)[C@H]3[C@@](O)(C(=O)OC)[C@H](OC(C)=O)[C@]5(CC)C=CCN6CC[C@]43[C@@H]65)C2)C1 [Vincristine sulfate],106.1 ± 21.2
16,COc1ccc(CCn2nnnc2C2(c3ccc(C)cc3)CC2)cc1 [Mephetyl tetrazole],66.4 ± 18.5
17,COc1ccc(NC=O)c(C(=O)CCNC(C)=O)c1 [AFMK],100.0 ± 2.7
18,N[C@H]1CON=C1O [L-Cycloserine],98.0 ± 1.4
19,Nc1c2c(nc3ccccc13)CCCC2O.O=C(O)/C=C\C(=O)O (stereo not drawn) [Hydroxytacrine maleate],108.6 ± 13.0
20,CC(=N)NCCCC[C@H](N)C(=O)O.Cl [L-N6-(1-Iminoethyl)lysine hydrochloride],96.4 ± 1.7
21,CN1CCc2cc(Cl)c(O)cc2[C@@H](c2ccccc2)C1.Cl [R(+)-SCH-23390 hydrochloride],96.2 ± 12.3

row,Molecule,% 25 nM CA200645 binding [%]
1,CC1=C(/C=C/C(C)=C/C=C/C(C)=C\C(=O)O)C(C)(C)CCC1 [13-cis-retinoic acid],85.2 ± 2.9
2,O=C(CCNNC(=O)c1ccncc1)NCc1ccccc1 [Nialamide],96.8 ± 7.4
3,N[C@@H](Cc1c[nH]c2ccc(O)cc12)C(=O)O [5-Hydroxy-L-tryptophan],97.7 ± 1.5
4,CN(N=O)c1cc(O)ccc1O [Dephostatin],75.4 ± 19.6
5,Cc1ccc([N+](=O)[O-])cc1S(=O)(=O)N(C)C [BRL 50481],82.8 ± 17.4
6,CC(C)[N+](C)(CCOC(=O)C1c2ccccc2Oc2ccccc21)C(C)C [Propantheline bromide],95.5 ± 4.8
7,CC(C)(C=O)Cc1cc(C(C)(C)C)c(O)c(C(C)(C)C)c1 [CGP-13501],97.4 ± 7.1
8,"O=C(O)c1cc(=O)c2c(Cl)cc(Cl)cc2[nH]1 [5,7-Dichlorokynurenic acid]",100.9 ± 8.8
9,CN1CCC[C@@H]1Cc1c[nH]c2ccc(CCS(=O)(=O)c3ccccc3)cc12 [Eletriptan hydrobromide],96.9 ± 5.3
10,Cc1ccc(O)c(N=Nc2ccccc2)n1 [SIB 1757],98.5 ± 4.5
11,NC(=O)N1c2ccccc2C=Cc2ccccc21 [Carbamazepine],89.8 ± 14.0
12,Cc1ncc(CNC(=O)N(CCCl)N=O)c(N)n1 [Nimustine hydrochloride],95.2 ± 13.6
13,Nc1nc2[nH]c(=O)cnc2c(=O)[nH]1 [Isoxanthopterin],94.7 ± 15.0
14,N#CC(C#N)=C(N)/C(C#N)=C/c1ccc(O)cc1 [Tyrphostin AG 112],102.8 ± 4.7
15,Cc1nnc(SCC2=C(C(=O)O)N3C(=O)[C@@H](NC(=O)Cn4cnnn4)[C@H]3SC2)s1 [Cefazolin sodium],96.3 ± 4.6
16,CNCCNS(=O)(=O)c1cccc2cnccc12.Cl.Cl [H-8 dihydrochloride],106.4 ± 6.7
17,CCN(CC)c1ncnc2c1ncn2[C@@H]1O[C@H](COP(=O)([O-])OP(=O)([O-])C(Br)(Br)P(=O)([O-])O)[C@@H](O)[C@H]1O.[Na+].[Na+].[Na+] [ARL 67156 trisodium salt],103.2 ± 16.2
18,Cc1ccccc1N1C(=O)c2cc(S(N)(=O)=O)c(Cl)cc2NC1C (stereo not drawn) [Metolazone],90.5 ± 39.1
19,OC[C@H]1O[C@@H](n2cnc3c(NC4CCCC4)ncnc32)[C@H](O)[C@@H]1O [N6-Cyclopentyladenosine],69.6 ± 6.1
20,C[C@H](Cc1ccccc1)Nc1ncnc2c1ncn2[C@@H]1O[C@H](CO)[C@@H](O)[C@H]1O [R(-)-N6-(2-Phenylisopropyl)adenosine],69.2 ± 26.4
21,(+)-Catechin Hydrate,94.3 ± 10.9

row,Molecule,% 25 nM CA200645 binding [%]
1,CN(C)c1cc2c(Nc3ccc4c(cnn4Cc4ccccc4)c3)ncnc2cn1 [GW2974],57.3 ± 11.9
2,"O=C(O)/C=C\C(=O)O.O=[N+]([O-])c1ccc2nc(N3CCNCC3)ccc2c1 [Quipazine, 6-nitro-, maleate]",100.0 ± 4.7
3,CC(=O)NCCc1c[nH]c2ccccc12 [N-Acetyltryptamine],99.0 ± 14.1
4,CC(C)COC(=O)OCN1C(=O)CN(CCN2CC(=O)N(COC(=O)OCC(C)C)C(=O)C2)CC1=O [Sobuzoxane],111.5 ± 7.6
5,Br.C=CCN1CCc2c(cc(O)c(O)c2Br)[C@@H](c2ccccc2)C1 [R(+)-6-Bromo-APB hydrobromide],77.8 ± 20.1
6,NCC(CP(=O)(O)O)c1ccc(Cl)cc1 (stereo not drawn) [Phaclofen],107.2 ± 18.9
7,CCCCCCCCCCCCCCCCCC(=O)OC(CC(=O)O)C[N+](C)(C)C.[Cl-] (racemic) [DL-Stearoylcarnitine chloride],44.2 ± 6.0
8,C=CC[N+](C)(C)c1ccc(CCC(=O)CCc2ccc([N+](C)(C)CC=C)cc2)cc1.[Br-].[Br-] [BW 284c51],100.9 ± 3.8
9,O=c1c(O)c(-c2ccc(O)cc2O)oc2cc(O)cc(O)c12 [Morin],72.1 ± 9.6
10,C[C@H](O)C(=O)C1=Nc2c(nc(N)[nH]c2=O)NC1 [Sepiapterin],97.4 ± 20.7
11,Nc1ncnc2c1ncn2C1CCCC1 [9-cyclopentyladenine],102.2 ± 2.7
12,CC(C)(C)c1onc(OCP(=O)(O)O)c1CC(N)C(=O)O (stereo not drawn) [ATPO],98.4 ± 3.3
13,C[C@H](Cc1ccc(OCC(=O)[O-])cc1)NC[C@H](O)c1cccc(Cl)c1.[Na+] [BRL 37344 sodium],98.2 ± 9.4
14,CC(CN1c2ccccc2Sc2ccccc21)N(C)C (stereo not drawn) [Promethazine hydrochloride],96.7 ± 11.4
15,Cc1cccc(C#Cc2ccccc2)n1.Cl,95.8 ± 6.2
16,C1CCc2nnnn2CC1 [Pentylenetetrazole],95.4 ± 8.7
17,CC[C@H]1OC(=O)[C@H](C)[C@@H](O[C@H]2C[C@@](C)(OC)[C@@H](O)[C@H](C)O2)[C@H](C)[C@@H](O[C@@H]2O[C@H](C)C[C@H](N(C)C)[C@H]2O)[C@](C)(O)C[C@@H](C)CN(C)[C@H](C)[C@@H](O)[C@]1(C)O [Azithromycin dihydrate],98.9 ± 6.9
18,Cl.NC[C@@H]1O[C@H](C23CC4CC(CC(C4)C2)C3)Cc2c1ccc(O)c2O [A-77636 hydrochloride],87.3 ± 8.5
19,NS(=O)(=O)c1ccc(-n2nc(C(F)(F)F)cc2-c2ccc(Cl)cc2)cc1 [SC-236],90.8 ± 15.2
20,Cc1cccc(C)c1N=C1NCCCS1 [Xylazine hydrochloride],106.3 ± 5.8
21,c1ccc2c(c1)[I+]c1ccccc1-2 [Diphenyleneiodonium chloride],92.7 ± 5.6

# Same assay, conditions: % of 25 nM CA200645 binding in the presence of 10 μM compound, LOPAC full screen, A3AR CHO cells
row,Molecule,% Total CA200645 binding [%]
1,"CCCn1c(=O)c2[nH]c(C3CCCC3)nc2n(CCCOC(=O)c2ccc(S(=O)(=O)F)cc2)c1=O [FSCPX, reference compound]",57.5 ± 23.0

# Same assay, conditions: % of control wells (1% DMSO and 25 nM CA200645); compounds at 10 µM; whole live cells expressing the A3AR; mean ± SD, three experiments in duplicate
row,Molecule,% 25 nM CA200645 binding [%]
1,COc1ccc(CCCOC(Cn2ccnc2)c2ccc(OC)cc2)cc1 (stereo not drawn) [SKF 96365],100.0 ± 16.7
2,CN(C(=O)CCCOc1ccc2[nH]c(=O)ccc2c1)C1CCCCC1 [Cilostamide],75.9 ± 3.4
3,COc1cc2c(cc1OC)-c1c/c(=N\c3c(C)cc(C)cc3C)n(C)c(=O)n1CC2 [Trequinsin hydrochloride],88.3 ± 40.0

# Same assay, conditions: compounds tested at 10 µM; % of control wells (1% DMSO and 25 nM CA200645); whole live cells expressing the A3AR; mean ± SD, three experiments in duplicate
row,Molecule,% 25 nM CA200645 binding [%]
1,CC[C@H](C)C(=O)O[C@H]1CCC=C2C=C[C@H](C)[C@H](CC[C@@H]3C[C@@H](O)CC(=O)O3)[C@H]21 [Mevastatin],107.1 ± 10.0
2,c1ccc(C2CC2)c(OCC2=NCCN2)c1 [Cirazoline hydrochloride],105.5 ± 7.7
